Experiments:
IDH2^R172K = target: T1, IDH2^R172K (Homo sapiens, UniProt P48735, R172K); assay: NADPH depletion assay, IDH2 R172K; type: biochemical
T1 construct: purchased not specified
T1 sequence (P48735 40-452 R172K): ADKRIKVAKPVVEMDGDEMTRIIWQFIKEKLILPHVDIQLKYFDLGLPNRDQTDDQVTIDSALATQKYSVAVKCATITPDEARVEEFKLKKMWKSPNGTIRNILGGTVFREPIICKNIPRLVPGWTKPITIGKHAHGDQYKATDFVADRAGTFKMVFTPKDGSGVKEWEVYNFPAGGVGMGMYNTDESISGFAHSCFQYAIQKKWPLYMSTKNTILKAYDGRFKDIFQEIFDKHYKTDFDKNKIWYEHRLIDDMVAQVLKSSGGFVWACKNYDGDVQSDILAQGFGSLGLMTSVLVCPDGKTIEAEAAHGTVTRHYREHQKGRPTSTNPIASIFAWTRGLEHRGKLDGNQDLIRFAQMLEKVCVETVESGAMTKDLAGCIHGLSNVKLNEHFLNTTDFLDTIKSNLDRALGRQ
How it was run: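 IDH2 R172K (16 nM) was preincubated 15 min at RT with compound (1:3 series from 1 mM in DMSO) in Tris pH 7.6/NaCl/MgCl2/Triton/β-mercaptoethanol. The reaction ran 60 min at RT with 0.55 mM alpha-ketoglutarate and NADPH (12 μM in the substrate mix). Remaining NADPH was read with diaphorase/resazurin fluorescence at Ex544/Em590.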

U87MG_IDH1R132H = assay: Cellular 2-HG production assay, U87-MG-IDH1 R132H; type: cell-based; settings: inhibition of 2HG production, 72 hr incubation, LC-MS/MS
Procedure: Cell lines HT-1080 (commercially available) and U87-MG-IDH1^R132H (obtained in analoy to the procedure reported in J. Mol. Neurosci 2013, 50, 165-71) are maintained in E-MEM 10% FCS and incubated at 37° C. in a humidified 5% CO2 atmosphere. Stably transfected U87-MG cell lines are also supplemented with 500 μg/mL G418.
Cells are seeded into 96 well black flat bottom plates at a density of 500 cells/well in 100 μL complete medium. After 24 hr the medium is replaced with 200 uL of fresh medium and compounds (dissolved into DMSO) are administrated to the cells using D300E Digital Dispenser (Tecan).
After 72 hr of incubation 100 uL from each well are collected and used for 2HG (R(−)-2-hydroxyglutarate) quantification.
Levels of 2-HG in cell culture media are determined by LC-MS/MS. Cell supernatants (100 μL/well) are treated with 1 M aqueous trichloroacetic acid containing 130 μM of the internal standard 2-HG-d3 (20 μL/well) in a 96-well plate.
The plates are sealed, mildly vortexed for 60 minutes, centrifuged at 4,000 RPM for 15 minutes, placed in a refrigerated autosampler taking care not to shake them, and aliquots of the upper part of the samples are directly injected in the chromatographic system. Calibration standards are obtained by ten fold dilution of aqueous 2-HG stock solutions with blank cell culture medium and denatured exactly in the same way as described above for samples. Samples and standards are assayed for 2-HG by reversed phase chromatography on a C18 column eluted with aqueous 0.15% formic acid and briefly washed with 90% methanol at the end of the run. 2-HG is determined by negative ion electrospray ionization with the internal standard method on a triple quadrupole mass spectrometer monitoring the MRM transitions 147>129 (2-HG) and 150>132 (2-HG-d3). 2-HG inhibition was calculated by comparing treated versus control data using Assay Explore (Symyx) software, with IC50 determined using a sigmoidal fitting algorithm.

HT-1080 (IDH1^R132C) = assay: Cellular 2-HG production assay, HT-1080; type: cell-based; settings: Homo sapiens, HT-1080, 72 h, inhibition of 2HG production, 72 hr incubation, LC-MS/MS; read-out: HT1080 2-HG IC50
How it was run: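 Cells in E-MEM/10% FCS (G418 500 μg/mL for the transfected U87-MG line) at 500 per well got compound 24 h after seeding and were incubated 72 h at 37 °C. Medium 2-HG was measured by LC-MS/MS with 2-HG-d3 internal standard; IC50 came from sigmoidal fitting versus controls.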

[1] = target: T2, IDH1^R132H homodimer enzyme (Homo sapiens, UniProt O75874, R132H); assay: NADPH depletion assay, IDH1 R132H; type: biochemical
T2 construct: purchased not specified
T2 sequence (O75874 whole entry R132H): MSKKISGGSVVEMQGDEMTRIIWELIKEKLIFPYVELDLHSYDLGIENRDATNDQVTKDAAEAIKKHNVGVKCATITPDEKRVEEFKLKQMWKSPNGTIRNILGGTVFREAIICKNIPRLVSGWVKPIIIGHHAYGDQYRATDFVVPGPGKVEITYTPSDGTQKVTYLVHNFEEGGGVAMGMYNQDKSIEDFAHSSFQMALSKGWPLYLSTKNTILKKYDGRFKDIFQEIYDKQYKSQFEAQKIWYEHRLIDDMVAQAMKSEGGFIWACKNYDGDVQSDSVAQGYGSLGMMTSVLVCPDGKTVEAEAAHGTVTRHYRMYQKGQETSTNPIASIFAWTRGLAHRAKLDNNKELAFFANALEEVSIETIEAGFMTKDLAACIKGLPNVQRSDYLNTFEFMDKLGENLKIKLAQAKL
How it was run: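 IDH1 R132H enzyme (8 nM as diluted) in Tris-HCl pH 7.6 with 10 mM MgCl2, 0.001% Triton X-100 and 4 mM β-mercaptoethanol is preincubated 15 min at RT with compound. Substrate mix (12 uM NADPH, 3.4 mM α-ketoglutarate) is added for 60 min; remaining NAD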

IDH1WT enzyme = target: T3, IDH1WT enzyme (Homo sapiens, UniProt O75874); assay: Enzymatic assay for IDH1 wild-type (NADPH forming assay); type: biochemical
T3 construct: purchased not specified
T3 sequence (O75874 whole entry): as the sequence (O75874 whole entry R132H) above, with H132R counted along it
Procedure: IDH1WT enzymatic activity converting isocitric acid to alpha-ketoglutarate is measured using a NADPH forming assay. In the assay the forming cofactor is measured in continuous with the addition of a catalytic excess of diaphorase and resazurin, to generate a fluorescent signal in proportion to the amount of NADPH forming.
Compounds were preincubated with the enzyme, then the reaction was started by the addition of NADP^+, isocitrate, diaphorase and a corresponding substrate, resazurin. Diaphorase reduces resazurin to the highly fluorescent resorufin with the concomitant oxidation of NADPH to NADP. Specifically, 0.2 uL of test compound, previously serially diluted 1 to 3, 10 experimental points from 1 mM in DMSO, was added to 0.016 nM IDH1WT enzyme in 10 μL of Assay Buffer (150 mM NaCl, 50 mM Tris-HCl pH 7.6, 10 mM MgCl2, 0.001% Triton X-100, 4 mM β-mercaptoethanol); the mixture is incubated for 15 minutes at room temperature. The reaction is started with the addition of 10 μL of Substrate Mix (400 μM NADP^+, 40 μM iso-citrate, 5 ugr/mL Diaphorase and 7 μM resazurin in Assay Buffer), the mixture is incubated at room temperature and the reaction is reading on a ViewLux as platereader at Ex544/Em590 in continuous.

IDH1^R132C = target: T4, IDH1^R132C (Homo sapiens, UniProt O75874, R132C); assay: NADPH depletion assay, IDH1 R132C; type: biochemical
T4 construct: purchased not specified
T4 sequence (O75874 whole entry R132C): as the sequence (O75874 whole entry R132H) above, with H132C counted along it
How it was run: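 IDH1 R132C (2 nM) preincubated 15 min at RT with compound in Tris-HCl pH 7.6/MgCl2 buffer, then 60 min RT with NADPH and 0.14 mM alpha-ketoglutarate. Remaining NADPH read by diaphorase/resazurin fluorescence (Ex544/Em590).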

SMILES	IC50 (IDH2^R172K)	IC50 (U87MG_IDH1R132H)	IC50 (HT-1080 (IDH1^R132C))	IC50 [1]	IC50 (IDH1WT enzyme)	IC50 (IDH1^R132C)
C=CC(=O)N1CCN(C(CC2CC2)c2ccc([C@H](C)Nc3ncc4ccc(=O)n(CC)c4n3)cc2)CC1 (stereo partly drawn) [cpd 219, 2-{[(1S)-1-{4-[1-(4-acryloylpiperazin-1-yl)-2-cyclopropylethyl]phenyl}ethyl]amino}-8-ethylpyrido[2,3-d]pyrimidin-7(8H)-one]	6 nM	0.4 nM	0.4 nM	1 nM	52 nM	1 nM
C=CC(=O)N1CCN(Cc2ccc([C@H](C)Nc3ncc4ccc(=O)n(CC(C)(C)C)c4n3)cc2F)CC1 [cpd 141, 2-{[(1S)-1-{4-[(4-acryloylpiperazin-1-yl)methyl]-3-fluorophenyl}ethyl]amino}-8-(2,2-dimethylpropyl)pyrido[2,3-d] pyrimidin-7(8H)-one]	213 nM	24 nM	–	38 nM	1820 nM	31 nM
C=CC(=O)N1CCC(Oc2ccc([C@H](C)Nc3ncc4ccc(=O)n([C@@H](C)C(C)C)c4n3)cc2)CC1 [cpd 159, 2-{(S)-1-[4-(1-Acryloyl-piperidin-4-yloxy)-phenyl]-ethylamino}-8-((S)-1,2-dimethyl-propyl)-8H-pyrido[2,3-d]pyrimidin-7-one]	510 nM	81 nM	–	77 nM	1730 nM	37 nM
C[C@H](Nc1ncc2ccc(=O)n(CC(C)(C)C)c2n1)c1ccc(CN2CCCC(F)(F)C2)cc1 [cpd 117, 2-{[(1S)-1-{4-[(3,3-difluoropiperidin-1-yl)methyl]phenyl}ethyl]amino}-8-(2,2-dimethylpropyl)pyrido[2,3-d]pyrimidin-7(8H)-one]	5510 nM	177 nM	155 nM	55 nM	1580 nM	29 nM
C=CC(=O)N1CCN(C(CC)c2ccc([C@@H](C)Nc3ncc4ccc(=O)n(C(C)C)c4n3)cc2)CC1 (stereo in doubt) [cpd 229, 2-{[(1R)-1-{4-[(1R)-1-(4-acryloylpiperazin-1-yl)propyl]phenyl}ethyl]amino}-8-(propan-2-yl)pyrido[2,3-d]pyrimidin-7(8H)-one]	386 nM	13 nM	20 nM	83 nM	839 nM	44 nM
C=CC(=O)N1CCN(Cc2ccc([C@H](C)Nc3ncc4ccc(=O)n(CC(C)(C)C)c4n3)cc2)CC1 [cpd 139, 2-{(S)-1-[4-(4-Acryloyl-piperazin-1-ylmethyl)-phenyl]-ethylamino}-8-(2,2-dimethyl-propyl)-8H-pyrido[2,3-d]pyrimidin-7-one]	264 nM	8 nM	22 nM	42 nM	720 nM	21 nM
C=CC(=O)N1CCN([C@@H](CC2CC2)c2ccc([C@H](C)Nc3ncc4ccc(=O)n(C(C)C)c4n3)cc2)CC1 [cpd 230, 2-{[(1S)-1-{4-[(1S)-1-(4-acryloylpiperazin-1-yl)-2-cyclopropylethyl]phenyl}ethyl]amino}-8-(propan-2-yl) pyrido [2,3-d]pyrimidin-7(8H)-one]	11 nM	0.4 nM	0.4 nM	1 nM	39 nM	1 nM
C=CC(=O)N1CCC(Oc2ccc([C@H](C)Nc3ncc4ccc(=O)n(CC(C)(C)C)c4n3)cc2)CC1 [cpd 156, 2-{(S)-1-[4-(1-Acryloyl-piperidin-4-yloxy)-phenyl]-ethylamino}-8-(2,2-dimethyl-propyl)-8H-pyrido[2,3-d]pyrimidin-7-one]	476 nM	289 nM	–	139 nM	2540 nM	91 nM
C=CC(=O)N1CCN(c2ccc([C@H](C)Nc3ncc4ccc(=O)n([C@@H](C)C(C)C)c4n3)cc2)CC1 [cpd 175, 2-({(1S)-1-[4-(4-acryloylpiperazin-1-yl)phenyl]ethyl}amino)-8-[(2S)-3-methylbutan-2-yl]pyrido[2,3-d]pyrimidin-7(8H)-one]	442 nM	21 nM	–	65 nM	1170 nM	66 nM
C=CC(=O)N1CCN(Cc2ccc([C@H](C)Nc3ncc4ccc(=O)n(C(C)C)c4n3)cc2)CC1 [cpd 184, 2-{[(1S)-1-{4-[(4-acryloylpiperazin-1-yl)methyl]phenyl}ethyl]amino}-8-(propan-2-yl)pyrido[2,3-d]pyrimidin-7(8H)-one]	201 nM	–	28 nM	126 nM	2870 nM	227 nM
C=CC(=O)N1CCN([C@@H](CC2CC2)c2ccc(C3(Nc4ncc5ccc(=O)n(C(C)C)c5n4)CC3)cc2)CC1 (single isomer, unassigned) [cpd 246]	19 nM	–	2.1 nM	2 nM	231 nM	1 nM
C=CC(=O)N1CCN(C(CC)c2ccc([C@H](C)Nc3ncc4ccc(=O)n(C(C)C)c4n3)cc2)CC1 (stereo partly drawn) [cpd 187, 2-{[(1S)-1-{4-[1-(4-acryloylpiperazin-1-yl)propyl]phenyl}ethyl]amino}-8-(propan-2-yl)pyrido[2,3-d]pyrimidin-7(8H)-one]	18 nM	–	< 1 nM	2 nM	541 nM	2 nM
C=CC(=O)N1CCN(C(=O)c2ccc([C@H](C)Nc3ncc4ccc(=O)n([C@@H](C)C(C)C)c4n3)cc2F)CC1 [cpd 191, 2-{[(1S)-1-{4-[(4-acryloylpiperazin-1-yl)carbonyl]-3-fluorophenyl}ethyl]amino}-8-[(2S)-3-methylbutan-2-yl]pyrido[2,3-d]pyrimidin-7(8H)-one]	902 nM	–	40 nM	70 nM	2990 nM	116 nM
